Values joined by “and” are separate entries in the source; they are usually repeats but may differ in a detail not shown here. Equal entries are not always repeated. Structures can show the parent of a compound that is named as a salt. Where two headings read alike, the source gives them in different places.
Assays:
Assay type in all cases: cell-based
[1] = test system: store-operated Ca^2+ entry in PLP-B lymphocytes; assay: Store-operated Ca2+ entry after thapsigargin depletion of ER Ca2+ stores in PLP-B lymphocytes; settings: for inhibition at 10 µM / inhibition at 50 µM / inhibition at 100 µM / Effect on amplitude of SOCE peak / inhibition at 1 µM / inhibition at 0.1 µM: PLP-B lymphocytes, % of inhibition (−) or activation; for IC50: SOCE in PLP-B lymphocytes, average of three assays, ±0.5 μM
Method: (§1) The effects of the molecules developed were tested on PLP-B lymphocytes. Store-operated Ca^2+ entry was induced by depletion of Endoplasmic Reticulum Ca^2+ stores (ER Ca^2+ stores) with thapsigargin (Tg) in a Ca^2+-free medium and measured following the addition of 1.8 mM of CaCl2) in the extracellular medium. The results are compared to the results obtained for known SOCE inhibitors SKF-96365, GSK-7975A, Synta 66.

[2] = test system: store-operated Ca^2+ entry in HEK 293; assay: Store-operated Ca2+ entry in HEK 293 cell line; settings: for Effect on amplitude of SOCE peak: % of inhibition (−) or activation
Method: as §1
(§2) Then, effects of the molecule that gave the best results in this test (i.e., molecule 6αa) were assessed in two cancer cell lines, namely: HEK 293 and HEK 651 HS1 tumor cell lines.

[3] = test system: JOK cells; assay: JOK cell viability and apoptosis assays (LIVE/DEAD, Annexin V-FITC/PI); settings: JOK B cells (FIG. 7); 5 or 20 μM; treated for 48 hours
Method: Cell Viability Assays. JOK cells were treated with test compounds (GSK-7975-A, SKF-93365 and 6αa) or solvent for 48 hours. JOK cells viability was then assessed using LIVE/DEAD cell viability assays kit (Abcam). Differentially labeled live and dead cells with fluorescent dyes are analyzed by flow cytometry.
Apoptosis Assay. Apoptosis of JOK cells were determined by Annexin V-FITC/PI staining (Biolegend) using flow cytometry. The percentage of annexin V-FITC and propidium iodide-[…] cells were assessed using Kaluza 1.3.

[4] = test system: store-operated Ca^2+ entry in HEK 651 HS1; assay: Store-operated Ca2+ entry in HEK 651 HS1 cell line; settings: for Effect on amplitude of SOCE peak: % of inhibition (−) or activation; for IC50: average of three assays, ±0.5 μM
Method: as §1, §2

[5] = test system: SOCE in JOK B cells; assay: Intracellular calcium levels / SOCE in JOK B cells (Fura-2AM, FlexStation 3); settings: for amplitude of SOCE: 5 and 20 μM, compared to control, irrespective of incubation time (5, 15, 30 minutes, 1 hour)
Method: Intracellular calcium levels were monitored at 37° C. using the FlexStation 3™ (Molecular Devices, Berkshire, UK), a fluorescence plate reader measuring time-resolved intracellular Ca^2+ concentration in a 96-well format with cells loaded with the dual-wavelength fluorescent calcium-sensitive dye Fura-2AM.
Intracellular Ca^2+ stores were depleted with 2 μM Thapsigargin (an inhibitor of ER SERCA pumps) under Ca^2+-free conditions to determine the magnitude of intracellular Ca^2+ release. Next, the cells were returned to Ca^2+-containing Hepes-buffered solution to measure SOCE. The magnitude of SOCE was estimated as the maximal values of normalized fluorescence ratio following Ca^2+ re-addition.

[6] = test system: HUVEC cells; assay: HUVEC cell death (Annexin/Propidium Iodide, flow cytometry); settings: HUVEC (FIG. 8); 5 or 20 μM; treated for 48 hours
Method: FIG. 8. In vitro Effects of 6αa, GSK-7975-A and SKF-93365 on HUVEC Cell Death. […] Cell death was analyzed by flow cytometry following Annexin/Propidium Iodide labeling. Percentages of living cells, necrotic cells and apoptotic cells submitted to GSK-7975A (A), SKF-93365 (B), and 6αa (DAD 3-473) (C) treatment were normalized to the DMSO treatment conditions. Histograms present the amounts of apoptotic cells (annexin/PI positive cells) detected in each experimental condition after treatment with GSK-7975A (D), SKF-93365 (E), and 6αa (DAD 3-473) (F). Data are expressed as mean±SEM of n observations (n=2). Data are analyzed with non parametric Mann Withney analysis, *P<0.05, **P<0.01 and ***P<0.001.

[7] = test system: JOK cells; assay: Migration of JOK cells through HUVEC in transwells; settings: 5 or 20 μM
Method: Migration Protocol. Migration chambers (transwells) (Transwell 5.0 m polycarbonate membrane Costar) were coated overnight (37° C., 5% CO2) with 100 μL of fibronectine solution containing BSA (1 mg/ml) and LHC Basal Medium. Primary HUmbilical Vein Endothelial Cells (HUVEC) were seeded in each transwell (100 000/well) and cultured for 24 hours (37° C., 5% CO2). To evaluate B cell migration, JOK cells were added (300 000/well) to each transwell upper chamber containing RPMI 1640 medium (BioWest) containing 0.5% BSA and SDF1 (200 ng/ml) was added in the bottom chamber. Cells were cultures in the presence or absence of a test compound (GSK-7975-A, SKF-93365 and 6αa) or solvent. After 24 hours (37° C., 5% CO2), migrated cells were collected in the bottom chambers and counted by flow cytometry. The percentages of migration were calculated for each experimental collection.

[8] = test system: PANC-1 cells; assay: PANC-1 cytotoxicity (Cell Tox green assay); settings: 5 and 20 μM, 24 hours
Method: Analysis of Cell Proliferation. For PANC-1 cell proliferation and cell cytotoxicity measurements, […] were seeded in 96 well-plates in 100 μL of DMEM medium. Cells were incubated for 24 hours at 37° C. with 3 different SOCE inhibitors (GSK-7975-A, SKF-93365 and 6αa) at 2 different concentrations (5 and 20 μM) compared to DMSO and untreated cells. Cell proliferation was evaluated using the Cell Titer kit proliferation assay (Promega). Cytotoxicity was evaluated using the Cell Tox green cytotoxicity assay (Promega). All the kits were used following manufacturer recommendations and using a plate reader.

[9] = Lymphocyte, 10 μM, DMSO control 100%, read-out: Effect on amplitude of SOCE Peak
[10] = Lymphocyte, 10 μM, thapsigargin (Tg) peak, read-out: Effect on amplitude of Tg Peak
[11] = Lymphocyte, 50 μM, DMSO control 100%, read-out: Effect on amplitude of SOCE Peak
[12] = Lymphocyte, 50 μM, thapsigargin (Tg) peak, read-out: Effect on amplitude of Tg Peak
[13] = Lymphocyte, 100 μM, DMSO control 100%, read-out: Effect on amplitude of SOCE Peak
[14] = Lymphocyte, 100 μM, thapsigargin (Tg) peak, read-out: Effect on amplitude of Tg Peak
[15] = Lymphocyte, 1 μM, DMSO control 100%, read-out: Effect on amplitude of SOCE Peak

For `Oc1ccc(CCn2cnc3cc(F)ccc32)cc1` [12αd, 5-Fluoro-1-(4-hydroxyphenylethyl)-1H-benzo[d]imidazol hydrochloride], the inhibition at 10 µM [1, 9] was -2.7%, the inhibition at 10 µM [1, 10] was -6% and the inhibition at 50 µM [1, 11] was -3%. For the same compound, the inhibition at 50 µM [1, 12] was -4.2%, the inhibition at 100 µM [1, 13] was 6.4% and the inhibition at 100 µM [1, 14] was -4.6%.

With `Oc1ccc(CCn2ncc3ccccc32)cc1` [12αe, 1-(4-Hydroxyphenylethyl)-1H-indazole hydrochloride] the inhibition at 10 µM [1, 9] was 5%, the inhibition at 10 µM [1, 10] was 11% and the inhibition at 50 µM [1, 11] was 18%. It also gave an inhibition at 50 µM [1, 12] of 29%, an inhibition at 100 µM [1, 13] of 8% and an inhibition at 100 µM [1, 14] of 28%.

With `Oc1ccc(CCn2cncn2)cc1` [12βa, 1-(4-Hydroxyphenylethyl)-1H-1,2,4-triazole hydrochloride] the inhibition at 10 µM [1, 9] was 8%, the inhibition at 10 µM [1, 10] was 8% and the inhibition at 50 µM [1, 11] was 10%. For the same compound, the inhibition at 50 µM [1, 12] was 14%, the inhibition at 100 µM [1, 13] was 12% and the inhibition at 100 µM [1, 14] was 8%.

In the case of `COc1ccc(CCCOc2ccc(CCn3cncn3)cc2)cc1` [Compound 6βf], the “Effect on amplitude of SOCE peak” value ([1]; 100 μM, DMSO control 100%) is reported as −10.0%, the inhibition at 10 µM [1, 10] is reported as 13% and the inhibition at 50 µM [1, 12] is reported as 18%.

`COc1ccc(CCCOc2ccc(CCn3cccn3)cc2)cc1` [Compound 6βp] gave an inhibition at 1 µM [1, 15] of -16% and an IC50 ([1]; Lymphocyte) of 25 µM.

In the case of `COc1ccc(CCOc2ccc(CCn3ccc(C(F)(F)F)n3)cc2)cc1` [Compound 6βs], the inhibition at 10 µM [1, 9] is reported as 13%, the inhibition at 50 µM [1, 11] is reported as 34% and the inhibition at 50 µM [1, 12] is reported as 6%. It also gave an inhibition at 100 µM [1, 13] of 64% and an inhibition at 100 µM [1, 14] of 10%.

With `O=C(Nc1ccn(Cc2ccc(O)cc2C(F)(F)F)n1)c1c(F)cccc1F` [GSK-7975A] the “Effect on amplitude of SOCE peak” value ([2]; 0.1 μM) was −7%, the “Effect on amplitude of SOCE peak” value ([2]; 1 μM) was −31% and the “Effect on amplitude of SOCE peak” value ([2]; 5 μM) was −66%. The “Effect on amplitude of SOCE peak” value ([2]; 10 μM) was −75%, the “Effect on amplitude of SOCE peak” value ([2]; 50 μM) was −87% and the IC50 ([2]; average of three assays, ±0.5 μM) was 2 µM. For the same compound, the “apoptosis or necrosis of cells” value [3] was “do not induce apoptosis or necrosis”, the “Effect on amplitude of SOCE peak” value ([4]; 0.1 μM) was 0% and the “Effect on amplitude of SOCE peak” value ([4]; 1 μM) was −2%. For the same compound, the “Effect on amplitude of SOCE peak” value ([4]; 5 μM) was −19%, the “Effect on amplitude of SOCE peak” value ([4]; 10 μM) was −22% and the “Effect on amplitude of SOCE peak” value ([4]; 50 μM) was −72%. The IC50 [4] was 44 µM, the “amplitude of Ca2+ release from the endoplasmic stores” value [5] was “not found to be significantly affected” and the “amplitude of SOCE” value [5] was “significantly reduces”. The “apoptosis or necrosis of cells” value [6] was “do not induce apoptosis or necrosis”, the “Effect on amplitude of SOCE peak” value ([1]; 1 μM, DMSO control 100%) was 19.0% and 9.0% and the “Effect on amplitude of SOCE peak” value ([1]; 10 μM, DMSO control 100%) was −9.0%. For the same compound, the “Effect on amplitude of SOCE peak” value ([1]; 50 μM, DMSO control 100%) was −88.0%, the “Effect on amplitude of SOCE peak” value ([1]; 100 μM, DMSO control 100%) was −94.0% and the IC50 [1] was 2.3 µM. The “transendothelial migration through HUVEC of JOK cells” value [7] was “does not” and the “cytotoxicity in cancer PANC-1 cells” value [8] was “no cytotoxic effects”.

For `COc1ccc(CCCOC(Cn2ccnc2)c2ccc(OC)cc2)cc1` (centres unmarked) [SKF-96365], the “Effect on amplitude of SOCE peak” value ([2]; 0.1 μM) was −25%, the “Effect on amplitude of SOCE peak” value ([2]; 1 μM) was −21% and the “Effect on amplitude of SOCE peak” value ([2]; 5 μM) was −23%. The “Effect on amplitude of SOCE peak” value ([2]; 10 μM) was −4%, the “Effect on amplitude of SOCE peak” value ([2]; 50 μM) was −33% and the “apoptosis or necrosis of cells” value [3] was “do not induce apoptosis or necrosis”. For the same compound, the “Effect on amplitude of SOCE peak” value ([4]; 0.1 μM) was −8%, the “Effect on amplitude of SOCE peak” value ([4]; 1 μM) was −6% and the “Effect on amplitude of SOCE peak” value ([4]; 5 μM) was −9%. The “Effect on amplitude of SOCE peak” value ([4]; 10 μM) was −17%, the “Effect on amplitude of SOCE peak” value ([4]; 50 μM) was −63% and the IC50 [4] was 40 µM. The “amplitude of Ca2+ release from the endoplasmic stores” value [5] was “not found to be significantly affected”, the “amplitude of SOCE” value [5] was “significantly reduces” and the “apoptosis or necrosis of cells” value [6] was “do not induce apoptosis or necrosis”. It also gave an inhibition at 0.1 µM ([1]; Lymphocyte, DMSO control 100%, read-out: Effect on amplitude of SOCE Peak) of 3.4%, an inhibition at 0.1 µM ([1]; Lymphocyte, thapsigargin (Tg) peak, read-out: Effect on amplitude of Tg Peak) of -2.4% and an inhibition at 1 µM [1, 15] of 26.4%. The inhibition at 1 µM ([1]; Lymphocyte, 1 μM, thapsigargin (Tg) peak, read-out: Effect on amplitude of Tg Peak) was -6.5%, the inhibition at 10 µM [1, 9] was 15.4% and the inhibition at 10 µM [1, 10] was 6.6%. It also gave an inhibition at 50 µM [1, 11] of 44.3%, an inhibition at 50 µM [1, 12] of 11.1% and an inhibition at 100 µM [1, 13] of 58.7%. For the same compound, the inhibition at 100 µM [1, 14] was 8%, the IC50 ([1]; Lymphocyte) was 60 µM and the “cytotoxicity in cancer PANC-1 cells” value [8] was “no cytotoxic effects”.

`COc1ccc(OC)c(-c2ccc(NC(=O)c3ccncc3F)cc2)c1` [Synta 66, reference compound] was tested, and the “Effect on amplitude of SOCE peak” value ([1]; 1 μM, DMSO control 100%) was 9.0%, the “Effect on amplitude of SOCE peak” value ([1]; 10 μM, DMSO control 100%) was 6.0% and the “Effect on amplitude of SOCE peak” value ([1]; 50 μM, DMSO control 100%) was −74.0%. For the same compound, the “Effect on amplitude of SOCE peak” value ([1]; 100 μM, DMSO control 100%) was −89.0% and the IC50 [1] was 8.8 µM.

Reference: patent US12686664B2, “SOCE inhibitors and therapeutic uses thereof” (Institut National de la Santé et de la Recherche Médicale …, priority 2020, dated 2026)
